Six compounds from patent publication US9693996B1, “Chlorophyll c containing degranulation suppressor” (MARUHA NICHIRO CORPORATION, priority 2011, dated 2017) can be followed below.

SMILES strings stand for the structures.

For series [1], the system named is rat basophile derived cell line RBL-2H3. Briefly: Test for evaluating degranulation suppressing activity (β-hexosaminidase release). It counts as cell-based. The note with it: for degranulation suppressing activity (percent degranulation): RBL-2H3 sensitized with anti DNP-IgE, stimulated with DNP-albumin, control group taken as 100%. The procedure: First, the rat basophile derived cell line RBL-2H3 was diluted with a DMEM medium (product of SIGMA) containing 10% fetal bovine serum (hereinafter referred to as FBS) to give a density of 2.5×10^5 cells/ml, dispensed on a 24-well culture plate in a volume of 1 ml/well, and cultured overnight at 37° C. under conditions of 5% CO2 and 100% humidity. After removing the culture supernatant, the cell surfaces were washed with 1 ml/well of a phosphate buffer solution (hereinafter referred to as PBS) and an anti DNP-IgE solution prepared by diluting mouse monoclonal anti-dinitrophenol (product of SIGMA) with a DMEM medium to give a concentration of 50 ng/ml was added in a volume of 500 μl/well, followed by incubation for 2 hours at 37° C. under conditions of 5% CO2 and 100% humidity. After the end of incubation, the anti DNP-IgE solution was removed and washing was done using 1.5 ml/well of a buffer solution containing 137 mM NaCl (product of nacalai tesque), 2.7 mM KCl (JUNSEI CHEMICAL), 1.8 Mm CaCl2.2H2O (JUNSEI CHEMICAL), 1 mM MgCl2. 6H2O (JUNSEI CHEMICAL), 5.6 mM glucose (Wako Pure Chemical Industries), 20 mM HEPES (Wako Pure Chemical Industries) and 0.1% BSA (the buffer solution being a modified Tyrode buffer which is hereinafter referred to as “MT buffer”); this procedure was repeated twice. Next, an MT buffer containing 0.5% of a chlorophyll, i.e., an authentic sample of chlorophyll a (product of DHI), an authentic sample of chlorophyll b (product of DHI), an authentic sample of chlorophyll c2 (product of DHI), or an authentic sample of chlorophyll d (purified from cyanobacteria adhering to surfaces of red algae, by referring to Non-Patent Documents 10 and 11, for example) was added in a volume of 490 μl/well and incubation was conducted for 10 minutes at 37° C. under conditions of 5% CO2 and 100% humidity. To a control group that would not undergo suppression of the degranulation reaction, an MT buffer containing 0.5% ethanol was added. After 10-min incubation, Albumin, dinitrophenyl (product of SIGMA) was added to give a concentration of 200 ng/ml and the mixture was stirred to homogeneity, followed by 30-min incubation at 37° C. under conditions of 5% CO2 and 100% humidity. After the end of incubation, the mixture was ice-cooled for 10 minutes to quench the reaction and 500 μl of the supernatant was recovered. To the cells from which the culture supernatant was recovered, Cell Lysate buffer (product of SIGMA) was added in a volume of 500 μl/well and thereafter an ultrasonic cell disrupter was used to form a homogeneous cell lysate which was recovered in a volume of 500 μl. The culture supernatant and the cell lysate were dispensed on a 96-well plate, each in a volume of 50 μl/well, and incubated at 37° C. for 5 minutes. After the end of incubation, an aqueous solution containing 100 mM citric acid and 3.3 mM p-nitrophenyl-2-acetoamido-2-deoxy-β-D-glucopyranoside (product of Wako Pure Chemical Industries) (the aqueous solution is hereinafter referred to as a “substrate solution”) was added in a volume of 100 μl/well and after thorough mixing, incubation was conducted at 37° C. for 25 minutes. After the end of incubation, an aqueous solution containing 2 M glycine (the aqueous solution is hereinafter referred to as a “reaction quencher”) was added in a volume of 100 μl/well and thorough mixing was conducted to quench the reaction; thereafter, a plate reader was used to measure the absorbance at 405 nm. Through this sequence of reactions, degranulation occurred and the activity of β-hexosaminidase contained in the granules was measured to calculate the proportion of granules released from the cells to the culture supernatant. […]

For series [2] the test system is unchanged. Put plainly: Test for evaluating percent cell survival (WST-1). The conditions noted are these: RBL-2H3, 40 min incubation. It counts as cell-based. Here is the method:
The rat basophile derived cell line RBL-2H3 diluted to the same concentration as in Example 1 was dispensed on a 96-well culture plate in a volume of 0.1 ml/well and cultured overnight at 37° C. under conditions of 5% CO2 and 100% humidity. After removing the culture supernatant, the cell surfaces were washed with 1 ml/well of PBS and then an MT buffer containing an authentic sample of chlorophyll c2 at the same concentrations by dry weight as in Example 1 was added in a volume of 100 μl/well and incubation was conducted for 40 minutes at 37° C. under conditions of 5% CO2 and 100% humidity. To a control group that would not undergo suppression of the degranulation reaction, an MT buffer containing 0.5% ethanol was added. After 40-min incubation, WST-1 reagent (product of DOJINDO) was added in a volume of […] and the mixture was incubated for 30 minutes at 37° C. under conditions of 5% CO2 and 100% humidity. After the end of incubation, the mixture was left to stand at room temperature for 10 minutes and then the absorbance at 450 nm was measured to evaluate the percent cell survival.
In general terms: Tetrazolium assays rely on reduction of a dye to a coloured formazan, in cell work by metabolically active cells.

Consider `C=Cc1c(C)c2cc3nc(c4c5[n-]c(cc6nc(cc1[n-]2)C(C)=C6CC)c(C)c5C(=O)[C@@H]4C(=O)OC)[C@@H](CCC(=O)OC/C=C(\C)CCC[C@H](C)CCC[C@H](C)CCCC(C)C)[C@@H]3C.[Mg+2]` [chlorophyll a, reference compound], for which the “degranulation suppressing activity (percent degranulation)” value in series [1] was “no degranulation suppressing activity at all”.
On the same count and under the same terms, in the case of `C=Cc1c(C)c2cc3nc(c4c5[n-]c(cc6nc(cc1[n-]2)C(C=O)=C6CC)c(C)c5C(=O)[C@@H]4C(=O)OC)[C@@H](CCC(=O)OC/C=C(\C)CCC[C@H](C)CCC[C@H](C)CCCC(C)C)[C@@H]3C.[Mg+2]` [chlorophyll b, reference compound] it was “no degranulation suppressing activity at all”.
On to `C=Cc1c(C)c2[nH]c1=CC1=NC(=CC3=C(C)C4=C([O-])[C@H](C(=O)OC)C(=C5N=C(C=2)C(C)=C5/C=C/C(=O)[O-])C4=N3)C(CC)=C1C.[Mg+2]` [chlorophyll c1], for which the “degranulation suppressing activity (percent degranulation)” value in series [1] is reported as “found to exhibit the degranulation suppressing activity”. For the same compound, in series [2], the “percent cell survival (cytotoxicity)” value is reported as “neither the cell group treated with the authentic sample of chlorophyll c1 nor the cell group treated with the authentic sample of chlorophyll c3 was recognized to experience a drop in the percent cell survival”.
For `C=CC1=C(C)C2=NC1=CC1=C(C)C3=C([O-])[C@H](C(=O)OC)C(=C4N=C(C=c5[nH]c(c(C=C)c5C)=C2)C(C)=C4/C=C/C(=O)[O-])C3=N1.[Mg+2]` [chlorophyll c2], the “degranulation suppressing activity (percent degranulation)” value is recorded as “exhibit the degranulation suppressing activity in a dose-dependent manner” in series [1] and “found to have the evaluating degranulation suppressing activity” in series [1] (listed as Fr. J). In series [1] (by dry weight, RBL-2H3, FIG. 1), the “concentration at which degranulation suppressing activity was already apparent” value is given as “about 0.05 μg/ml”. For the same compound, the “percent cell survival (cytotoxicity)” value in series [2] is recorded as “none of the cell groups treated with the authentic sample of chlorophyll c2 experienced a drop in percent cell survival”.
With `C=CC1=C(C)C2=CC3=NC(=C4C5=NC(=C(C)C5=C([O-])[C@@H]4C(=O)OC)C=c4[nH]c(c(C(=O)OC)c4C=C)=CC1=N2)C(/C=C/C(=O)[O-])=C3C.[Mg+2]` [chlorophyll c3], the “degranulation suppressing activity (percent degranulation)” value in series [1] is listed as “found to exhibit the degranulation suppressing activity”. Also, the “percent cell survival (cytotoxicity)” value in series [2] was “neither the cell group treated with the authentic sample of chlorophyll c1 nor the cell group treated with the authentic sample of chlorophyll c3 was recognized to experience a drop in the percent cell survival”.
In the case of `CCC1=C(C)c2cc3[n-]c(cc4nc(c5c6[n-]c(cc1n2)c(C)c6C(=O)[C@@H]5C(=O)OC)[C@@H](CCC(=O)OC/C=C(\C)CCC[C@H](C)CCC[C@H](C)CCCC(C)C)[C@@H]4C)c(C)c3C=O.[Mg+2]` [chlorophyll d, reference compound], the “degranulation suppressing activity (percent degranulation)” value in series [1] is on record as “no degranulation suppressing activity at all”.
